Results taken from US9434725B2, “5-azaindazole compounds and methods of use” (priority 2012, dated 2016).

Key:
Format in all cases: biochemical
[1] = biological target: PIM3 (Homo sapiens (Human), UniProt Q86V86); experiment: Pim kinase binding activity, Caliper LC3000 microfluidic peptide phosphorylation assay, PIM3; conditions: 10 μM ATP, 90 min, room temperature; read-out: PIM3 LC3K (KI)
Outline: (§1)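 Read-out is microfluidic electrophoretic separation of phosphorylated from unphosphorylated fluorescent Pim peptide, with Ki calculated from conversion. Reactions ran 90 min at room temperature in HEPES pH 7.2 containing MgCl2, Tween 20 and DTT, ended by EDTA-containing buffer.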

[2] = biological target: PIM1 (Homo sapiens (Human), UniProt P11309); experiment: biochemical; conditions: 10 μM ATP, 90 min, room temperature; read-out: PIM1 LC3K (KI)
Experimental: A fluorescent-labeled Pim-specific peptide substrate, was custom synthesized by American Peptide Company (Sunnyvale, Calif.). Reaction Buffer contained 10 mM HEPES, pH 7.2, 10 mM MgCl2, 0.01% Tween 20, 2 mM DTT. Termination Buffer contained 190 mM HEPES, pH 7.2, 0.015% Brij-35, 0.2% Coating Reagent 3 (Caliper Life Sciences, Hopkinton, Mass.), 20 mM EDTA. Separation Buffer contained 100 mM HEPES, pH 7.2, 0.015% Brij-35, 0.1% Coating Reagent 3, 1:200 Coating Reagent 8 (Caliper Life Sciences, Hopkinton, Mass.), 10 mM EDTA and 5% DMSO.
PIM reactions were carried out in a final volume of 10 μL per well in a 384-well plate. […] After 90 minutes of incubation at room temperature, the phosphorylation reaction was stopped by the addition of 10 μL Termination Buffer. The product and substrate in each independent reaction were separated on a 12-sipper microfluidic chip (Caliper Life Sciences, Hopkinton, Mass.) run on a Caliper LC3000® (Caliper Life Sciences, Hopkinton, Mass.). The separation of product and substrate was optimized by choosing voltages and pressure using Caliper's Optimizer software (Hopkinton, Mass.). […] Substrate conversion was calculated from the electropherogram using HTS Well Analyzer software (Caliper Life Sciences, Hopkinton, Mass.). Ki values for the test compound were calculated.

[3] = biological target: PIM2 (Homo sapiens (Human), UniProt Q9P1W9); experiment: Pim kinase binding activity, Caliper LC3000 microfluidic peptide phosphorylation assay, PIM2; conditions: 10 μM ATP, 90 min, room temperature; read-out: PIM2 LC3K (KI)
Outline: as §1

PIM2, sequence (Q9P1W9 whole entry): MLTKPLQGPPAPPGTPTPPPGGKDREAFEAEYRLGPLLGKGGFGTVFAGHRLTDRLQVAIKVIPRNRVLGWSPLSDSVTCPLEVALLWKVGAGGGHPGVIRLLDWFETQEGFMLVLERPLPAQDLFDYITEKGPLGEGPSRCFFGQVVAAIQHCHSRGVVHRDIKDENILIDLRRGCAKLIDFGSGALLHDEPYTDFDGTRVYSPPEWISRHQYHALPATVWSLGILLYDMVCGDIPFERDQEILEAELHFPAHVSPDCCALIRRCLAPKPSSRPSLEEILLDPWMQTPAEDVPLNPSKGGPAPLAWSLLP
PIM1, sequence (P11309 whole entry): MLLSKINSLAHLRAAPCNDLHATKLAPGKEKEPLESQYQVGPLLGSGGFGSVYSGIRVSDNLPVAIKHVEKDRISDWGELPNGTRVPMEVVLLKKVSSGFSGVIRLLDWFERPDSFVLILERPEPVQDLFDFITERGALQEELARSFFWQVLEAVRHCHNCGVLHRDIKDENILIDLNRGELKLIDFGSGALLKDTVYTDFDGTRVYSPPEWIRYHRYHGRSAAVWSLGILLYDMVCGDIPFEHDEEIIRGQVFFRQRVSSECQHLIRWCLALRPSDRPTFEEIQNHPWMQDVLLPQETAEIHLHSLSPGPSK

Row | SMILES | Ki [1] [nM] | Ki [2] [nM] | Ki [3] [nM]
1 | Cc1cncc(-c2cc3c(cn2)cnn3-c2cccc(N3CCC4(CCNC4)CC3)n2)n1 [Compound 200, 8-[6-[6-(6-methylpyrazin-2-yl)pyrazolo[4,3-c]pyridin-1-yl]-2-pyridyl]-2 8-diazaspiro[4.5]decane] | 0.451 | 1.21 | 17
2 | Cc1cncc(-c2cc3c(cn2)cnn3-c2cccc(N3C[C@@H](N)CCC3=O)n2)n1 [Compound 202, (5S)-5-amino-1-[6-[6-(6-methylpyrazin-2-yl)pyrazolo[4,3-c]pyridin-1-yl]-2-pyridyl]piperidin-2-one] | 36.4 | 56.4 | 421
3 | Cc1cncc(-c2cc3c(cn2)cnn3-c2cccc(N3CCNCCC3=O)n2)n1 [Compound 206, 4-[6-[6-(6-methylpyrazin-2-yl)pyrazolo[4,3-c]pyridin-1-yl]-2-pyridyl]-1 4-diazepan-5-one] | 2.3 | 3.74 | 40.4
4 | Cc1cncc(-c2cc3c(cn2)cnn3-c2cccc(N3CC4(CCNC4)C3)n2)n1 [Compound 217, 1-[6-(2 7-diazaspiro[3.4]octan-2-yl)-2-pyridyl]-6-(6-methylpyrazin-2-yl)pyrazolo[4,3-c]pyridine] | 0.258 | 1.17 | 15.1
5 | Cc1cncc(-c2cc3c(cn2)cnn3-c2ccc(C(F)(F)F)c(N3CCNCC(O)C3)n2)n1 (stereo not drawn) [Compound 219, 1-(6-(6-(6-methylpyrazin-2-yl)-1H-pyrazolo[4,3-c]pyridin-1-yl)-3-(trifluoromethyl)pyridin-2-yl)-1,4-diazepan-6-ol] | 0.265 | 0.433 | 12.5
6 | Cc1cncc(-c2cc3c(cn2)cnn3-c2ccc(C)c(N3C[C@@H](N)CCC3=O)n2)n1 [Compound 221, (5S)-5-amino-1-[3-methyl-6-[6-(6-methylpyrazin-2-yl)pyrazolo[4,3-c]pyridin-1-yl]-2-pyridyl]piperidin-2-one] | 23.2 | 26.2 | 744
7 | COc1ncc(-n2ncc3cnc(-c4cncc(C)n4)cc32)nc1N1CCC[C@H](N)C1 [Compound 222, (3S)-1-[3-methoxy-6-[6-(6-methylpyrazin-2-yl)pyrazolo[4,3-c]pyridin-1-yl]pyrazin-2-yl]piperidin-3-amine] | 0.073 | 0.125 | 0.979
8 | Cc1cncc(-c2cc3c(cn2)cnn3-c2cnc(O)c(N3CCC[C@H](N)C3)n2)n1 [Compound 223, 3-[(3S)-3-amino-1-piperidyl]-5-[6-(6-methylpyrazin-2-yl)pyrazolo[4 3-c]pyridin-1-yl]pyrazin-2-ol] | 1.84 | 2.37 | 7.11
9 | Cc1cncc(-c2cc3c(cn2)cnn3-c2cnc(Cl)c(N3CCC[C@H](N)C3)n2)n1 [Compound 226, (3S)-1-[3-chloro-6-[6-(6-methylpyrazin-2-yl)pyrazolo[4,3-c]pyridin-1-yl]pyrazin-2-yl]piperidin-3-amine] | 0.89 | 1.65 | 10.4
10 | Cn1cc(-c2cc3c(cn2)cnn3-c2cccc(N3CCNC[C@@H](O)C3)n2)cn1 [Compound 229, (R)-1-(6-(6-(1-Methyl-1H-pyrazol-4-yl)-1H-pyrazolo[4,3-c]pyridin-1-yl)pyridin-2-yl)-1,4-diazepan-6-ol] | 0.131 | 0.316 | 9.39
11 | Cn1cc(-c2cc3c(cn2)cnn3-c2cccc(C3(O)CCCNCC3)n2)cn1 (stereo not drawn) [Compound 230, 4-(6-(6-(1-Methyl-1H-pyrazol-4-yl)-1H-pyrazolo[4,3-c]pyridin-1-yl)pyridin-2-yl)azepan-4-ol] | 4.32 | 5.05 | 63.3
12 | Cc1cncc(-c2cc3c(cn2)cnn3-c2cccc(N3CC(O)C(O)C3)n2)n1 (stereo not drawn) [Compound 232, 1-[6-[6-(6-methylpyrazin-2-yl)pyrazolo[4,3-c]pyridin-1-yl]-2-pyridyl]pyrrolidine-3 4-diol] | 0.83 | 1.19 | 21.1
13 | Cc1cncc(-c2cc3c(cn2)cnn3-c2cc(N3CCC[C@H](N)C3)c(=O)n(C)c2)n1 [Compound 233, (S)-3-(3-aminopiperidin-1-yl)-1-methyl-5-(6-(6-methylpyrazin-2-yl)-1H-pyrazolo[4,3-c]pyridin-1-yl)pyridin-2(1H)-one] | 903 | 528 | 2300
14 | COc1ccc(-n2ncc3cnc(-c4cnn(CC(F)(F)F)c4)cc32)nc1N1CCNC[C@@H](O)C1 [Compound 234, (R)-1-(3-Methoxy-6-(6-(1-(2,2,2-trifluoroethyl)-1H-pyrazol-4-yl)-1H-pyrazolo-[4,3-c]pyridin-1-yl)pyridin-2-yl)-1,4-diazepan-6-ol] | 0.236 | 0.107 | 2.25
15 | Cn1cc(-c2cc3c(cn2)cnn3-c2cccc(C3CCCNCC3)n2)cn1 (stereo not drawn) [Compound 235, 1-(6-(azepan-4-yl)pyridin-2-yl)-6-(1-methyl-1H-pyrazol-4-yl)-1H-pyrazolo[4,3-c]pyridine] | 0.806 | 1.55 | 16.5
16 | Cn1cc(-c2cc3c(cn2)cnn3-c2cccc(C3(F)CCCNCC3)n2)cn1 (stereo not drawn) [Compound 236, 1-(6-(4-Fluoroazepan-4-yl)pyridin-2-yl)-6-(1-methyl-1H-pyrazol-4-yl)-1H-pyrazolo[4,3-c]pyridine] | 0.37 | 0.715 | 8.6
17 | COc1ccc(-n2ncc3cnc(-c4cnn(CC(F)(F)F)c4)cc32)nc1N1CCNC[C@H](O)C1 [Compound 237, (S)-1-(3-Methoxy-6-(6-(1-(2,2,2-trifluoroethyl)-1H-pyrazol-4-yl)-1H-pyrazolo-[4,3-c]pyridin-1-yl)pyridin-2-yl)-1,4-diazepan-6-ol] | 0.587 | 0.31 | 10.1
18 | Cc1cncc(-c2cc3c(cn2)cnn3-c2cnc(C3CC3)c(N3CCC[C@H](N)C3)n2)n1 [Compound 238, (3S)-1-[3-cyclopropyl-6-[6-(6-methylpyrazin-2-yl)pyrazolo[4,3-c]pyridin-1-yl]pyrazin-2-yl]piperidin-3-amine] | 0.032 | 0.026 | 0.257
19 | Cc1cncc(-c2cc3c(cn2)cnn3-c2cccc(N3CCCN(C4COC4)CC3)n2)n1 [Compound 240, 6-(6-methylpyrazin-2-yl)-1-(6-(4-(oxetan-3-yl)-1,4-diazepan-1-yl)pyridin-2-yl)-1H-pyrazolo[4,3-c]pyridine] | 2.03 | 1.51 | 31.7
20 | Cc1cncc(-c2cc3c(cn2)cnn3-c2cn(C)c(=O)c(N3CCC[C@H](N)C3)n2)n1 [Compound 241, (S)-3-(3-aminopiperidin-1-yl)-1-methyl-5-(6-(6-methylpyrazin-2-yl)-1H-pyrazolo[4,3-c]pyridin-1-yl)pyrazin-2(1H)-one] | 0.762 | 3.53 | 45.5
21 | Cn1cc(-c2cc3c(cn2)cnn3-c2cn(C)c(=O)c(N3CCC[C@H](N)C3)n2)cn1 [Compound 242, (S)-3-(3-Aminopiperidin-1-yl)-1-methyl-5-(6-(1-methyl-1H-pyrazol-4-yl)-1H-pyrazolo[4,3-c]pyridin-1-yl)pyrazin-2(1H)-one] | 42.2 | 128 | 1600
22 | Cn1cc(-c2cc3c(cn2)cnn3-c2cn(C)c(=O)c(N3CCC[C@@H](N)C3)n2)cn1 [Compound 243, (R)-3-(3-aminopiperidin-1-yl)-1-methyl-5-(6-(1-methyl-1H-pyrazol-4-yl)-1H-pyrazolo[4,3-c]pyridin-1-yl)pyrazin-2(1H)-one] | 8.64 | 57.1 | 528
